Tests used:
Fusarium solani 1 (FS1) = experiment: Antifungal MIC (Example 4); format: cell-based; details: Fusarium solani 1; peptides; Tables 4 and 5
[1] = tested on: Candida albicans (CA), clinical isolate; experiment: Antifungal MIC (Example 4); format: cell-based; details: peptides, Tables 4 and 5
[2] = tested on: Candida albicans 6862 (clinical isolate); experiment: microbe, parasite or virus in culture; format: cell-based; details: 6862 (clinical isolate, 24 h)
Procedure: (§1) Four compounds were supplied as an aqueous solution, 400 μM. Serial dilutions of each test peptide were prepared in addition to a control, which was a conventional antifungal drug, Amphoteracin B. Amphteracin B is obtained from Invitrogen or Melford laboratories.
(§2) Initial testing of the peptides was carried out against the following organisms: • 1) Aspergillus fumigatus AF293 (culture collection strain NCPF7367) • 2) Candida albicans 6862 (clinical isolate) • 3) Fusarium spp 5889 (clinical isolate) • 4) Fusarium spp 6507 (clinical isolate) • 5) Aspergillus terreus (clinical isolate) • 6) Aspergillus niger (clinical isolate) • 7) Staphylococcus aureus (Oxford strain, which is a standard reference strain used in MIC testing)
(§3) The bacterium S. aureus was tested with each of the peptides as a control. A suspension of each organism in an appropriate growth medium was added to the, dilutions of the peptides in order to give concentration ranges of 40 μM to 0.04 μM for each of the peptides, and 64-0.025 μg/ml for amphotericin B. Fungal strains were tested in RPMI media. RPMI is standard Roswell Park Memorial Institute medium (Morton, H. C., (1970) A survey of Commercially Available Tissue Culture Media. In Vitro 6: 89-108).
(§4) The final inoculum for S. aureus was 5×10^4 cfu/ml. The final inoculum for C. albicans was 2×10^3 cfu/ml. The final inoculum for Aspergillus fumigatus and for Fusarium spp was 2×10^4 cfu/ml.
(§5) Candida and S. aureus plates were read after 24 hrs incubation and the Aspergillus and Fusarium strains read after 48 hrs. The MIC was taken as the lowest drug or compound concentration that caused >80% reduction in growth compared with a drug free control.

Fusarium solani 2 (FS2) = experiment: Antifungal MIC (Example 4); format: cell-based; details: Fusarium solani 2; peptides; Tables 4 and 5
Fusarium solani 3 (FS3) = experiment: Antifungal MIC (Example 4); format: cell-based; details: Fusarium solani 3; peptides; Tables 4 and 5
[3] = tested on: Acanthamoeba polyphaga (trophozoites), Ros strain; experiment: Microtitre plate assay against Acanthamoeba trophozoites (Example 2); format: cell-based; details: for MATC = minimum amoebacidal trophozoite concentration: lowest concentration killing the trophozoite challenge
Excerpt: The test compounds were screened against the trophozoites of clinical isolates of Acanthamoeba spp. using a microtitre plate assay procedure. The organisms were Acanthamoeba polyphaga. (see for details on the strain and methodology used: Hughes, R. & Kilvington, S. (2001). A comparison of hydrogen peroxide contact lens disinfection systems and solutions against Acanthamoeba polyphaga. Antimicrob. Agents Chemother. 45: 2038-2043.) Acanthamoeba polyphaga Ros strain was used throughout the study. The strain was originally isolated from an unpublished case of acanthamoeba keratitis in the United Kingdom in 1994.
Use of the microliter plate assay enabled the determination of the minimum amoebacidal trophozoite concentration (MATC), which is the minimum amoebacidal trophozoite concentration (μg/ml)=lowest concentration killing the trophozoite challenge […] and also the minimum inhibitory trophozoite concentration (MITC), which is the minimum inhibitory trophozoite concentration (μg/ml)=lowest concentration stopping the trophozoites from dividing or killing about 50% of population. The values may then be used to select drug concentrations for use in time-kill experiments to study the kinetics of Acanthamoeba killing.

Fusarium solani 4 (FS4) = experiment: Antifungal MIC (Example 4); format: cell-based; details: Fusarium solani 4; peptides; Tables 4 and 5
[4] = tested on: Aspergillus fumigatus AF293 (NCPF7367); experiment: microbe, parasite or virus in culture; format: cell-based; details: for MIC: AF293 (NCPF7367, 48 h); for MIC values (>80% reduction) AF: Aspergillus fumigatus 293, peptides, Tables 4 and 5
P. berghei sporozoites = experiment: Sporozoite development assay in Hepa 1-6 cells (Example 5); format: cell-based, Plasmodium berghei; details: for inhibition of entry of P. berghei into Hep 1-6 cells: sporozoites pre-incubated with polypeptide at 50 μg/ml, plated on cells with peptide present, FIG. 5(A)
Procedure: 3-5 day-old Anopheles stephensi mosquitoes were fed on anesthetized P. berghei (NK65)-infected Swiss Webster mice which had been checked by blood smear for the abundance of gametocyte-stage parasites. Salivary gland sporozoites were harvested on days 18 to 21 post-infective blood meal. The mosquitoes were rinsed in 70% ethanol and washed in Dulbecco's Modified Eagle Medium (DMEM) before salivary gland dissection. The glands were gently ground, spun at 80×g for 3 min to remove mosquito debris and sporozoites counted in a hemocytometer.
Hepa 1-6 cells (ATCC CRL-1830, American Type Culture Collection, Manassas, Va.), a mouse hepatoma cell line permissive for P. berghei sporozoite development were seeded (8×10^4 cells/well) in Lab-Tek permanox chamber slides (Nalgene Nunc Corp., Naperville, Ill.) and grown until confluent. On the day of the experiment, sporozoites were dissected from mosquitoes and pre-incubated with Dulbecco's Modified Eagle Medium (DMEM; Invitrogen, Carlsbad, Calif.) with 1% BSA alone or with the indicated polypeptide at 50 μg/ml for 1 hr at 28° C. and plated on cells in the continued presence of the inhibitor in DMEM containing 10% fetal calf serum (complete medium). After 1 hr at 37° C., the medium containing unattached sporozoites and polypeptide was removed and replaced with complete medium. […] The number of EEFs in each well were counted with a 40× objective on a Nikon fluorescent microscope. In other experiments, Hepa1-6 cells were pretreated with the polypeptides at 50 μg/ml in complete medium for 1 hour, washed and then sporozoites were added in complete medium without polypeptide and the assay was continued as outlined above.

[5] = tested on: Staphylococcus aureus (Oxford strain); experiment: microbe, parasite or virus in culture; format: cell-based; details: Oxford strain, 24 h
Procedure: as §1, §2, §3
S. aureus was tested in Isosensitest broth. Isosentitest agar is a standard MIC medium used by many hospital labs for bacterial MICs using a disc diffusion method. The reference standard is Oxoid CM471. Also available in broth form, CM473, for the bacterial broth dilution assay method. NCCLS ref M7-A4. Both the NCCLS methods quoted are the standard methods.
as §4, §5

[6] = tested on: Fusarium spp 6507 (clinical isolate); experiment: Antifungal MIC broth dilution (Example 1); format: cell-based; details: RPMI, 48 hrs, >80% reduction
Procedure: as §1, §2, §3, §4, §5

[7] = tested on: Fusarium spp 5889 (clinical isolate); experiment: Antifungal MIC broth dilution (Example 1); format: cell-based; details: RPMI, 48 hrs, >80% reduction
Procedure: as §1, §2, §3, §4, §5

[8] = tested on: Aspergillus niger (clinical isolate); experiment: microbe, parasite or virus in culture; format: cell-based; details: clinical isolate
Procedure: as §1, §2, §3, §5

[9] = tested on: Aspergillus terreus (clinical isolate); experiment: microbe, parasite or virus in culture; format: cell-based
Procedure: as §1, §2, §3, §5

fungi = format: cell-based; details: fungus not specified; read-out: IC50 value for inhibiting fungal growth
Procedure: as §1, §2
The bacterium S. aureus was tested with each of the peptides as a control. […] RPMI is standard Roswell Park Memorial Institute medium (Morton, H. C., (1970) A survey of Commercially Available Tissue Culture Media. In Vitro 6: 89-108).
as §5
The methods used to determine, the IC50 values for each peptide were as described in the Example 1.

bacteria = details: reported by Azuma et al., Peptides 21: 327-330 (2000); cited from earlier work

Substance	MIC values (>80% reduction) FS1 (Fusarium solani 1 (FS1)) [µM]	MIC values (>80% reduction) CA [1] [µM]	MIC [2] [µM]	MIC values (>80% reduction) FS2 (Fusarium solani 2 (FS2)) [µM]	MIC values (>80% reduction) FS3 (Fusarium solani 3 (FS3)) [µM]	MATC = minimum amoebacidal trophozoite concentration [3] [µM]	MIC values (>80% reduction) FS4 (Fusarium solani 4 (FS4)) [µM]	MIC [4] [µM]	MIC values (>80% reduction) AF [4] [µM]	inhibition of entry of P. berghei into Hep 1-6 cells (P. berghei sporozoites)	MIC [5] [µM]	MIC [6] [µM]	MIC [7] [µM]	MIC [8] [µM]	MIC [9] [µM]	MITC = minimum inhibitory trophozoite concentration ([3]; lowest concentration stopping trophozoites dividing or killing about 50% of population) [µM]	block of P. berghei entry after pretreatment of cells (P. berghei sporozoites; cells treated with peptide at 50 μg/ml for 1 hour, washed, then sporozoites added, FIG. 5(B))	IC50 (fungi) [nM]	antibacterial activity (in words) (bacteria)
Ac-LRKLRKRLLLRKLRKRLL-NH2 [MU_10]	2.5	>40	>40	5	2.5	207.1	5	>40	>40	inhibit entry of P. berghei into Hep 1-6 cells	>40	>40	10	>40	>40	–	–	–	–
Ac-WRKWRKRWWWRKWRKRWW-NH2 [MU_4]	0.3	2.5	10	0.3	0.3	41.7	0.3	2.5	1.25	inhibit entry of P. berghei into Hep 1-6 cells	5	10	2.5	1.25	>40	20.8	retained its ability to block P. berghei entry	≤ 2500	–
apoE134-151: Azuma's apolipoprotein E peptide, 18 amino acids in length (RVRLASHLRKLRKRLLRD; UniProt P02649 152-169, looked up, fragment)	–	–	–	–	–	–	–	–	–	–	–	–	–	–	–	–	–	–	no activity at all
apoE134-155: Azuma's apolipoprotein E peptide, 22 amino acids in length (RVRLASHLRKLRKRLLRDADDL; UniProt P02649 152-173, looked up, fragment)	–	–	–	–	–	–	–	–	–	–	–	–	–	–	–	–	–	–	very low antibacterial activity
apoE134-159: Azuma's apolipoprotein E peptide, 26 amino acids in length (RVRLASHLRKLRKRLLRDADDLQKRL; UniProt P02649 152-177, looked up, fragment)	–	–	–	–	–	–	–	–	–	–	–	–	–	–	–	–	–	–	greatly reduced antibacterial activity

Source: patent US8916516B2, “Treatment of fungal and/or protist infections” (AI2 Limited, priority 2005, dated 2014)
